“Also recorded” adds a separate entry of the source.

Test [1] deals with femoral arteries of aged WT and KI mice. In words: Endothelium-independent relaxations induced by apo-sGC activator, wire myograph. The following applies: BAY 60-2770 0.01-10 μM. On the procedure:
(§1) To test which component of NO-cGMP signalling was most likely affected, we tested an uncoupling effect on endothelial NO synthase or an oxidative damage of the NO receptor, soluble guanylate cyclase yielding oxidized or heme-free apo-sGC [51, 52]. To test for sGC/apo-sGC, relaxing responses to the NO donor compound and sGC stimulator, PAPA/NO (0.01-10 μM), and to the aposGC activator, BAY 60-2770 (0.01-10 μM), were analyzed.
(§2) After mice were sacrificed, thoracic aortae, femoral and saphenous arteries were dissected free from perivascular adipose tissue and mounted in a wire myograph (DMT, Aarhus, DK). The organ chamber was filled with Krebs-Ringer bicarbonate-buffered salt solution (KRB) that was continuously aerated with 95% O2/5% CO2 and maintained at 37° C. […] Arterial contractile and relaxing responses were recorded at lumen diameters corresponding to a distending pressure of 100 mmHg in thoracic aorta and femoral artery and at 90% of this diameter in the resistance-sized saphenous artery. […] Consequently, wall stiffness can be determined equally by recording 1) changes in tension in response to imposed changes in radius (wire myography) or 2) changes in radius in response to changes in transmural pressure (pressure myography). […] The wall tension of the vessel segment was continuously recorded with LabChart Pro (AD Instruments, Oxford, UK).

The test system of test [2] is femoral arteries of aged NOX5 KI mice. Briefly: Acetylcholine (Ach)-induced relaxation of isolated femoral arteries, wire myograph. The following applies: for Reversal of impaired Ach-induced relaxation by antioxidant: femoral arteries of aged KI mice contracted with 10 μM phenylephrine, Ach 10 μM. The text has this: (§3) To test the effect of endothelial NOX5 on endothelium-dependent, NO-cGMP mediated relaxation, arterial segments were pre-contracted by either depolarization (K^+), α1-adrenergic activation (phenylephrine), or endothelin-1; vaso-relaxation was then induced by acetylcholine (Ach) the classical endothelium-derived relaxing factor stimulant. […] When comparing ours to previous studies, the Ach-induced relaxation of saphenous arteries of both mice groups seemed attenuated. There are two possible explanations for this discrepancy. First, we have used very old mice and other studies used young mice.
After mice were sacrificed, thoracic aortae, femoral and saphenous arteries were dissected free from perivascular adipose tissue and mounted in a wire myograph (DMT, Aarhus, DK). The organ chamber was filled with Krebs-Ringer bicarbonate-buffered salt solution (KRB) that was continuously aerated with 95% O2/5% CO2 and maintained at 37° C. Passive stretch procedure was performed to mimic the physiologically relevant internal lumen diameter as previously described. Arterial contractile and relaxing responses were recorded at lumen diameters corresponding to a distending pressure of 100 mmHg in thoracic aorta and femoral artery and at 90% of this diameter in the resistance-sized saphenous artery. […] The diameter tension relationships were constructed according to the law of Laplace for a cylindrical tube: P=T/R (with P for transmural pressure, T for wall tension and R for the lumen radius of the tube). Consequently, wall stiffness can be determined equally by recording 1) changes in tension in response to imposed changes in radius (wire myography) or 2) changes in radius in response to changes in transmural pressure (pressure myography). Here we used the former approach because it has a higher throughput than the latter. Stress-strain relationships and even better “incremental elastic (Young's) modulus” (which require additional recording of wall thickness) only come into play to discriminate between structural and material property contributions to changes in arterial stiffness. Part of the isolated thoracic aorta was studied in the absence and part in the continuous presence of 10 μM indomethacin to inhibit production of prostaglandins that can act as endothelium-derived vasoactive factors in this vessel. The vessels were tested for their contractile response to 40 mM K^+, concentration-response curves of phenylephrine (0.01 to 100 μM) and endothelin-1 (1-256 nM) followed by acetylcholine (Ach) (0.01 to 100 μM), PAPA/NO (0.01-10 μM) or Bay60-2770 (0.01-10 μM)-induced relaxations. The wall tension of the vessel segment was continuously recorded with LabChart Pro (AD Instruments, Oxford, UK).

Test [3] has as its system saphenous arteries of aged KI and WT mice. Briefly: Ach-induced relaxation of isolated saphenous arteries, wire myograph. The note with it: saphenous arteries contracted with endothelin-1; 100 μM L-NAME; both types of mice.
Source text: as §3
as §2, with “DK).” for “DK). The organ chamber was filled with Krebs-Ringer bicarbonate-buffered salt solution (KRB) that was continuously aerated with 95% O2/5% CO2 and maintained at 37° C.”

For test [4], the system named is femoral arteries of aged NOX5 KI mice. In words: Measurement of superoxide formation: DHE staining. The following applies: pre-treatment with 500 μM L-NAME for 30 min at 37° C. On the procedure:
Superoxide was measured in femoral arteries using the florescence dye dihydroethidium (DHE) (Thermo Scientific Technology, The Netherlands). Frozen femoral arteries cryo-sections were fixated in 4% paraformaldehyde (PFA) in PBS and then incubated with 2 μM DHE for 30 minutes at 37° C. After three washing steps with PBS, slices were incubated with DAPI (Sigma-Aldrich, The Netherlands) […] for 10 min. Sections were washed in PBS and then mounted using a Dako Fluorescence Mounting Medium ([…], Agilent Technologies). Immunofluorescent signals were viewed using a Leica DM13000 B fluorescence microscope. Some arteries were pre-treated with 500 μM L-NAME for 30 min at 37° C. before performing the DHE staining.

Test [5] concerns thoracic aorta of aged KI and WT mice. Briefly: Ach-induced relaxation of isolated thoracic aorta, wire myograph. The note with it: thoracic aorta contracted with 258 nM endothelin-1, 100 μM L-NAME.
Source text: as §3
as §2, with “DK).” for “DK). The organ chamber was filled with Krebs-Ringer bicarbonate-buffered salt solution (KRB) that was continuously aerated with 95% O2/5% CO2 and maintained at 37° C.”

Test [6] deals with femoral arteries, saphenous arteries and thoracic aortae of aged WT and KI mice. Briefly: Endothelium-independent relaxations induced by NO donor, wire myograph. The following applies: PAPA/NO 0.01-10 μM, thoracic aortae with/without indomethacin. On the procedure:
as §1, §2

Another test relates to hypertensive patients. The note with it: cited from earlier work.
Test [7] deals with thoracic aorta of the KI and WT mice. In words: Agonist-induced contractile responses, wire myograph. The following applies: 10 μM indomethacin.
Source text: We next tested whether, alternatively, chronic changes in the underlying arterial smooth muscle layer could have contributed to the observed blood pressure and vasomotor phenotypes in aged NOX5 KI mice. Contractile responses to K^+ and the sensitivity and maximal responsiveness to phenylephrine and endothelin-1 did, however, not differ between KI and WT mice in all arterial segments (FIGS. 10 A-I).
as §2

Test [8] concerns elevated blood pressure induced by NOS uncoupling. The note with it: preclinical, refs [85, 86]; cited from earlier work.

Regarding `O=C(O)CCCCN(CCc1cc(F)ccc1OCc1ccc(-c2ccc(C(F)(F)F)cc2)cc1)Cc1ccc(C(=O)O)cc1` [BAY 60-2770], the “Relaxing response, WT vs KI mice” value is “Neither the PAPA/NO (FIGS. 13 A-C) nor the BAY 60-2770 response (FIG. 11 D) differed” in [1] and “did not differ” in test [1] (listed as Bay60-2770).

With `COC(=O)[C@@H](N)CCCNC(=N)N[N+](=O)[O-]` [L-NAME], the “Reversal of the relaxing effects of Ach” value in test [2] (femoral artery contracted with 258 nM endothelin-1, 100 μM L-NAME, KI and WT mice) is “reversed”; in [3], “did not modify the relaxing effects of Ach”; in [5] it was “reversed”. Also, the “Superoxide formation (DHE staining), increase in KI vs WT” value in test [4] is given as “this increase was inhibited”.

In the case of `CC(=O)N[C@@H](CS)C(=O)O` [N-acetylcysteine], the “Reversal of impaired Ach-induced relaxation by antioxidant” value in [2] (10 μM N-acetylcysteine) was “not reversed; also recorded: Neither 10 μM N-acetylcysteine nor 100 μM tempol, however, were effective”.

For the compound `CCCN(CCCN)/[N+]([O-])=N/O` [PAPA/NO], the “Relaxing response, WT vs KI mice” value in test [6] was “Neither the PAPA/NO (FIGS. 13 A-C) nor the BAY 60-2770 response (FIG. 11 D) differed”; in test [6] (listed as PAPA NO) it was “did not differ”.

As for `Nc1nc2ncc(CNc3ccc(C(=O)N[C@@H](CCC(=O)O)C(=O)O)cc3)nc2c(=O)[nH]1` [folic acid], the “Effect on elevated blood pressure” value with hypertensive patients (clinical, by improving endothelial function, refs [88, 89]) is reported as “clinically effective to reduce elevated blood pressure”. Besides, the “Risk of cardiovascular and cerebrovascular events” value in the test with hypertensive patients (hypertensive patients, alone or in combination with anti-hypertensives, refs [90-92]) is “reduces the risk of cardiovascular and cerebrovascular events”.

In the case of `COc1ccc2c(c1)c(CC(=O)O)c(C)n2C(=O)c1ccc(Cl)cc1` [indomethacin], the “Blunting of agonist-induced contractile responses, KI vs WT mice” value in [7] is “similar”.

Take `C[C@H](O)C(=O)C1=Nc2c(nc(N)[nH]c2=O)NC1` [sepiapterin]: the “Ach-induced relaxation after pre-treatment” value in test [2] (femoral arteries of aged KI mice pre-contracted with phenylephrine, sepiapterin 100 μM) is “improved relaxation in KI; also recorded: greatly improved and became indistinguishable from those in WT”. In addition, the “Effect on elevated blood pressure” value in test [8] is “lower elevated blood pressure”.

Regarding `CC1(C)CC(O)CC(C)(C)N1[O]` [tempol], the “Reversal of impaired Ach-induced relaxation by antioxidant” value in test [2] (100 μM tempol) was “not reversed; also recorded: Neither 10 μM N-acetylcysteine nor 100 μM tempol, however, were effective”.

(Values after patent US20230228764A1, “METHOD FOR THE DIAGNOSIS AND TREATMENT OF ESSENTIAL PRIMARY HYPERTENSION” (Universiteit Maastricht, priority 2020, published 2023).)
